According to patent publication EP2114875B1, “SUBSTITUTED ARYLCYLOPENTENES AS THERAPEUTIC AGENTS” (ALLERGAN, INC., priority 2007, dated 2008):

Tests used:
[1] = molecular target: T1, hEP2 (Homo sapiens, UniProt P43116); assay: hEP2 flipr assay; format: cell-based
Text: (§1) United States Patent Application Serial No. 11/553,143, filed on October 26, 2006, describes the methods used to obtain the in vitro data in the table below.

[2] = molecular target: T1, hEP2; assay: hEP2 cAMP assay; format: cell-based
Text: as §1

[3] = molecular target: T1, hEP2; assay: hEP2 binding; conditions: read-out: hEP2 Kl
Text: as §1

[4] = molecular target: T2, hEP4 (Homo sapiens, UniProt P35408); assay: hEP4 flipr assay; format: cell-based
T2 sequence (P35408 whole entry): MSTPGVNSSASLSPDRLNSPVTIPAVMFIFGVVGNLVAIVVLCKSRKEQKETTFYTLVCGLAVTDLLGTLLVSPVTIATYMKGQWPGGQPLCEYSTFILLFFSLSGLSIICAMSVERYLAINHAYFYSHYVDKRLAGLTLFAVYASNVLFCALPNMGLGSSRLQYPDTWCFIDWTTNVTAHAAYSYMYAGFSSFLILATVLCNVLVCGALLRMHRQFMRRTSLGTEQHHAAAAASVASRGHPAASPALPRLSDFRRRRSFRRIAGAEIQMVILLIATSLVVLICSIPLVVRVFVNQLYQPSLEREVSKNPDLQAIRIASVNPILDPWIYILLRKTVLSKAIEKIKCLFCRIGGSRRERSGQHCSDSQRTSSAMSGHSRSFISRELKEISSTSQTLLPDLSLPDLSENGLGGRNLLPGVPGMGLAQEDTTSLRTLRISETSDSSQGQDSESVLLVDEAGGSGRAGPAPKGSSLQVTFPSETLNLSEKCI
Text: as §1

[5] = molecular target: T2, hEP4; assay: hEP4 binding
Text: as §1

T1 sequence (P43116 whole entry): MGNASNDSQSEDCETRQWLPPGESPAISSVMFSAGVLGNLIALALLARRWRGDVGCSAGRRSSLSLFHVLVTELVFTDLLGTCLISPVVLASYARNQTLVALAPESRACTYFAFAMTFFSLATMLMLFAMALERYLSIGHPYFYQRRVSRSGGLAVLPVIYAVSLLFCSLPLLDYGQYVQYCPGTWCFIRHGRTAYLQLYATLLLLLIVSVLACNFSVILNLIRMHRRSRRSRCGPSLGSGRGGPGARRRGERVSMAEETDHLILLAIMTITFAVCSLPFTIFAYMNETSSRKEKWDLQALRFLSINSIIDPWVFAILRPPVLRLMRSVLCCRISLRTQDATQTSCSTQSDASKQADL

O=C(O)c1ccc(CCCC2=CC[C@@H](O)[C@@H]2COc2cc(Cl)cc(Cl)c2)s1 [Example 1, 5-{3[(4R,5S)-5-(3,5-Dichloro-phenoxymethyl)-4-hydroxy-cyclopent·1-enyl]-propyl}-thiophene-2-carboxylic acid]
EC50 [1]: 424 nM
EC50 [2]: 4.8 nM
Ki [3]: 81 nM
EC50 [4]: > 10000 nM
Ki [5]: 1580 nM
